Test results taken from patent USRE44987E1, “Bromo-phenyl substituted thiazolyl dihydropyrimidines” (Sunshine Lake Pharma Co., Ltd., priority 2007, dated 2014).
Like-named read-outs stand apart in the source and are kept apart here.

Columns and labels:
[1] = tested on: hepatitis B virus; assay: Antiviral action on hepatitis B virus in HepG2.2.15 cells (HBV DNA dot-blot hybridization); format: cell-based; details: 50% reduction of intra- or extracellular hepatitis B-specific band
Procedure: The antiviral action of the compounds of the invention on hepatitis B virus is investigated by methods based on those described by M. A. Sells et al., Proc. Natl. Acad. Sci., 84, 1005-1009 (1987) and B. E. Korba et al., Antiviral Research 19, 55-70 (1992).
The antiviral tests are carried out in 96-well microtiter plates. The first vertical row of the plate receives only growth medium and HepG2.2.15 cells. It serves as virus control.
Stock solutions of the test compounds (50 mM) are initially dissolved in DMSO, and further dilutions are prepared in the HepG2.2.15 growth medium. The compounds according to the invention are usually pipetted in a test concentration of 100 μM (1st test concentration) in each case into the second vertical test row of the microtiter plate and subsequently diluted in twofold steps […] in growth medium plus 2% by weight of fetal calf serum (volume 25 μl)
Each well of the microtiter plate then contains 225 μl of HepG2.2.15 cell suspension (5×10^4 cells/ml) in growth medium plus 2% by weight of fetal calf serum. The test mixture is incubated at 37° C. and 5% CO2 (v/v) for 4 days.
The supernatant is then aspirated off and discarded, and the wells receive 225 μl of freshly prepared growth medium. The compounds according to the invention are each added anew as 10-fold concentrated solution in a volume of 25 μl. The mixtures are incubated for a further 4 days
The supernatant and/or cells are then harvested and sucked by means of a vacuum onto 96-well dot-blot chambers covered with a nylon membrane (in accordance with the manufacturer's information).
After the supernatants or lysed cells is transferred to the nylon membrane of the blot apparatus (see above), the intra- or extracellular supernatants of the HepG2.2.15 cells are denatured (1.5 M NaCl/0.5 N NaOH), neutralized (3 M NaCl/0.5M Tris HCl, pH 7.5) and washed (2×SSC). The DNA is then baked onto the membrane by incubating the filters at 120° C. for 2-4 hours.
Detection of the viral DNA from the treated HepG2.2.15 cells on the nylon filters is usually carried out with nonradioactive, digoxigenin-labeled hepatitis B-specific DNA probes, each of which is labeled with digoxigenin, purified and employed for the hybridization in accordance with the manufacturer's information.
The prehybridization and hybridization take place in 5×SSC, 1×blocking reagent, 0.1% by weight N-lauroylsarcosine, 0.02% by weight SDS and 100 μg of herring sperm DNA. The prehybridization takes place at 60° C. for 30 minutes, and the specific hybridization takes place with 20 to 40 ng/ml of the digoxigenized, denatured HBV-specific DNA (14 hours, 60° C.). The filters are then washed.
The immunological detection of the digoxigenin-labeled DNA took place in accordance with the manufacturer's information: […]

[2] = tested on: hepatitis B virus; details: examples of U.S. Pat. No. 7,074,784, values as described in that patent; cited from earlier work
[3] = Hepatitis B virus, HepG2.2.15, HepG2.2.15 cells

COC(=O)C1=C(CN2CCOCC2)NC(c2nccs2)=NC1c1ccc(F)cc1Br (single isomer, unassigned; (-)) [(−)-6]
IC50 ([1]; HepG2.2.15 cells): 0.2 nM

CCOC(=O)C1=C(CN2CCOCC2)NC(c2nccs2)=NC1c1ccc(F)cc1Br (centres unmarked) [Example 5, Ethyl 4-(2-bromo-4-fluorophenyl)-2-(thiazol-2-yl)-6-(4-morpholinylmethy)-1,4-dihydropyrimidine-5-carboxylic ester]
IC50 [1, 3]: 0.2 nM | IC50 [2]: 2 to 4 nM

CCOC(=O)C1=C(CN2CCOCC2)NC(c2nccs2)=NC1c1ccc(F)cc1Br (single isomer, unassigned; (-)) [(−)-5]
IC50 ([1]; HepG2.2.15 cells): 0.1 nM

COC(=O)C1=C(CN2CCOCC2)NC(c2nccs2)=NC1c1ccc(F)cc1Br (centres unmarked) [Example 6, Methyl 4-(2-bromo-4-fluorophenyl)-2-(thiazol-2-yl)-6-(4-morpholinylmethy)-1,4-dihydropyrimidine-5-carboxylic ester]
IC50 [1, 3]: 0.3 nM
